Target mRNA inhibition data for 54 sequences are collected here from the OligoGym collection.

Values joined by “and” are separate entries in the source; they are usually repeats but may differ in a detail not shown here. Equal entries are not always repeated. After the bases stand the sugars from the 5' end (letter, count) and the backbone: PS all phosphorothioate, else s phosphorothioate and o phosphodiester by linkage. Methylation of C is not given here. e = 2'-O-(2-methoxyethyl) (MOE); d = 2'-deoxy (DNA)

The target of the series is DGAT2. As to conditions: ASO.

For “CTTATCCTTGAGGGTCTCAT (sugars e5 d10 e5, PS)”, the target mRNA inhibition reads like this: (HepG2, 2.5 µM) 56%; (HepG2, 10 µM) 77%.
In turn, “CTTCACCAGCTGGATGGGAA (sugars e5 d10 e5, PS)” gave a target mRNA inhibition (HepG2, 0.12 µM) of 36%.
For the setting “HepG2, 0.12 µM”, “CTTCTTGCTCACTTCTGTGG (sugars e5 d10 e5, PS)” displayed a target mRNA inhibition of 25%.
Same read-out and setting: with “CTTGCTCACTTCTGTGGCCT (sugars e5 d10 e5, PS)” the figure was 48%.
Regarding “GAAAACTTAGGCATGCTTCC (sugars e5 d10 e5, PS)”, the target mRNA inhibition was found to be 59% (HepG2, 2.5 µM) and 92% (HepG2, 10 µM).
The like results for “GAAATCTGAGTGCTGCTAAC (sugars e5 d10 e5, PS)” were, in that order, 71% and 91%.
“GAACTTCTTCTGGACCCATC (sugars e5 d10 e5, PS)” came in with a target mRNA inhibition (HepG2, 0.12 µM) of 19%.
“GAAGGCACAGAAAAGTGAGG (sugars e5 d10 e5, PS)” returned a target mRNA inhibition (HepG2, 0.12 µM) of 11%.
As for “GAAGGCACCCAGGCCCATGA (sugars e5 d10 e5, PS)”, the target mRNA inhibition (HepG2, 0.12 µM) was 38%.
Take “GACAAGCGACAGCCCTGTGC (sugars e5 d10 e5, PS)”: the target mRNA inhibition turned out to be 75% (HepG2, 2.5 µM) and 79% (HepG2, 10 µM).
On to “GACAGCTGTGATGACTTCCC (sugars e5 d10 e5, PS)”, for which the target mRNA inhibition (HepG2, 2.5 µM) was found to be 73% and the target mRNA inhibition (HepG2, 10 µM) was 87%.
On to “GACAGGACCCACTGGAGCAC (sugars e2 d13 e5, PS)”, for which the target mRNA inhibition (HepG2, 0.12 µM) stood at 73%.
The sequence “GACAGGACCCACTGGAGCAC (sugars e3 d14 e3, PS)” gave a target mRNA inhibition (HepG2, 0.12 µM) of 58%.
Take “GACCCACTGGAGCACTGAGA (sugars e3 d14 e3, PS)”: under “HepG2, 0.12 µM”, the target mRNA inhibition came out at 56%.
For the setting “HepG2, 0.12 µM”, “GACCCACTGGAGCACTGAGA (sugars e5 d10 e5, PS)” displayed a target mRNA inhibition of 69%.
For the sequence “GACCCACTGTGACCTCCTGC (sugars e5 d10 e5, PS)”, the target mRNA inhibition (HepG2, 0.12 µM) was 25%.
Take “GACCTATTGAGCCAGGTGAC (sugars e5 d10 e5, PS)”: for the setting “HepG2, 0.12 µM”, the target mRNA inhibition was 36%.
“GACTTGCCCAGCAACCCATC (sugars e5 d10 e5, PS)” gave a target mRNA inhibition (HepG2, 2.5 µM) of 77% and a target mRNA inhibition (HepG2, 10 µM) of 54%.
“GAGAAGAGGTCCTGGAGGGC (sugars e5 d10 e5, PS)” returned a target mRNA inhibition (HepG2, 0.12 µM) of 10%.
As for “GAGCAGATCTCAAAATCTCG (sugars e5 d10 e5, PS)”, the target mRNA inhibition was 72% (HepG2, 2.5 µM) and 87% (HepG2, 10 µM).
“GAGCTCAGAGACTCAGCCGC (sugars e2 d13 e5, PS)”: the target mRNA inhibition reads like this: (HepG2, 0.12 µM) 89%; (HepG2, 2.5 µM) 27%; (HepG2, 10 µM) 42%; (HepG2, 20 µM) 61%.
Take “GAGCTCTCAAGTCTTCC (sugars e3 d10 e4, PS)”: the target mRNA inhibition is, setting by setting: (HepG2, 2.5 µM) 55% and 64%; (HepG2, 10 µM) 86% and 87%.
Regarding “GAGTAAGGGTATTCTGCTCA (sugars e5 d10 e5, PS)”, the target mRNA inhibition (HepG2, 10 µM) is 91% and 93% and 96%.
As to “GAGTAGGGCACCAGCCCCCA (sugars e5 d10 e5, PS)”, the target mRNA inhibition (HepG2, 0.12 µM) stood at 0%.
In the case of “GAGTAGTCAAAGGTGGCTTC (sugars e5 d10 e5, PS)”, the target mRNA inhibition by setting is: (HepG2, 2.5 µM) 66%; (HepG2, 10 µM) 78%.
For “GATGCTCCAGGTGGGCCAGA (sugars e5 d10 e5, PS)”, the target mRNA inhibition runs as follows: (HepG2, 2.5 µM) 52%; (HepG2, 10 µM) 82%.
As to “GATGGCACTGCAGGCCACTC (sugars e5 d10 e5, PS)”, the target mRNA inhibition (HepG2, 0.12 µM) was 28%.
With “GATTCAAATCTGTGTGACCT (sugars e5 d10 e5, PS)”, the target mRNA inhibition is 64% and 83% (HepG2, 2.5 µM); 89% and 92% (HepG2, 10 µM).
As for “GCAATGCCAATGCCTAG (sugars e3 d10 e4, PS)”, the target mRNA inhibition by setting is: (HepG2, 2.5 µM) 69% and 80%; (HepG2, 10 µM) 78% and 87%.
With “GCAATGTTGCCATCATA (sugars e3 d10 e4, PS)”, the target mRNA inhibition runs as follows: (HepG2, 2.5 µM) 69% and 76%; (HepG2, 10 µM) 90% and 95%.
In the case of “GCACCATTTTCACAAGGAGA (sugars e5 d10 e5, PS)”, the target mRNA inhibition is 79% and 72% (HepG2, 2.5 µM); 85% and 81% (HepG2, 10 µM).
In the case of “GCACTAAGCTAGGCACACCC (sugars e5 d10 e5, PS)”, the target mRNA inhibition is, setting by setting: (HepG2, 2.5 µM) 62%; (HepG2, 10 µM) 90%.
Turning to “GCACTGACATGGTAAGTCCT (sugars e5 d10 e5, PS)”, the target mRNA inhibition (HepG2, 2.5 µM) is 87% and 79%; the target mRNA inhibition (HepG2, 10 µM) was 93% and 89%.
On to “GCACTGCAGGCCACTCCCAG (sugars e5 d10 e5, PS)”, for which, for the setting “HepG2, 0.12 µM”, the target mRNA inhibition stood at 37%.
Take “GCAGATGGACAGGTGATTCT (sugars e5 d10 e5, PS)”: the target mRNA inhibition is, setting by setting: (HepG2, 2.5 µM) 69%; (HepG2, 10 µM) 91%.
As to “GCAGCCTGGACAAGTCCTGC (sugars e3 d14 e3, PS)”, the target mRNA inhibition was 83% (HepG2, 0.12 µM); 48% and 59% (HepG2, 2.5 µM); 73% (HepG2, 10 µM); 81% (HepG2, 20 µM).
Consider “GCAGCCTGGACAAGTCCTGC (sugars e5 d10 e5, PS)”, for which the target mRNA inhibition (HepG2, 0.12 µM) stood at 70%.
“GCAGGTTGTGTGTCTTCACC (sugars e2 d13 e5, PS)” had a target mRNA inhibition (HepG2, 0.12 µM) of 56%.
In the case of “GCAGGTTGTGTGTCTTCACC (sugars e3 d14 e3, PS)”, the target mRNA inhibition (HepG2, 0.12 µM) came to 69%.
In turn, “GCATGGAGCTCAGAGACTCA (sugars e5 d10 e5, PS)” yielded a target mRNA inhibition (HepG2, 0.12 µM) of 69%.
Regarding “GCATTCTTGCCAGGCATGGA (sugars e5 d10 e5, PS)”, the target mRNA inhibition by setting is: (HepG2, 2.5 µM) 41%; (HepG2, 10 µM) 74%.
Consider “GCATTGCCACTCCCATTCTT (sugars e5 d10 e5, PS)”, for which the target mRNA inhibition (HepG2, 20 µM) is 94% and 91% and 95%.
Regarding “GCCACAGGGCCCTTTCCAGA (sugars e5 d10 e5, PS)”, the target mRNA inhibition runs as follows: (HepG2, 2.5 µM) 68%; (HepG2, 10 µM) 92%.
The sequence “GCCACCTGCTTTGGAACTAA (sugars e5 d10 e5, PS)” displayed a target mRNA inhibition (HepG2, 0.12 µM) of 41%.
With “GCCACTCAGCCTTGGAGCCA (sugars e5 d10 e5, PS)”, the target mRNA inhibition reads like this: (HepG2, 2.5 µM) 90% and 83%; (HepG2, 10 µM) 86% and 85%.
For “GCCAGGCCCCTTCTGAAGAG (sugars e5 d10 e5, PS)”, the target mRNA inhibition (HepG2, 0.12 µM) amounted to 36%.
As to “GCCAGGTAAGGCCGTATGCC (sugars e2 d13 e5, PS)”, the target mRNA inhibition (HepG2, 0.12 µM) came out at 66%.
For the sequence “GCCATCATACTAGACTATGC (sugars e5 d10 e5, PS)”, the target mRNA inhibition is, setting by setting: (HepG2, 2.5 µM) 88% and 81%; (HepG2, 10 µM) 91% and 90%.
As for “GCCCAGTTTCGGACCCACTG (sugars e5 d10 e5, PS)”, the target mRNA inhibition is, setting by setting: (HepG2, 2.5 µM) 37%; (HepG2, 10 µM) 46%; (HepG2, 20 µM) 65%.
For the sequence “GCCTGGACAAGTCCTGCCCA (sugars e5 d10 e5, PS)”, the target mRNA inhibition runs as follows: (HepG2, 0.12 µM) 70% and 86%; (HepG2, 20 µM) 81% and 88%.
“GCGACAGCCCTGTGCCAGCC (sugars e5 d10 e5, PS)”: the target mRNA inhibition worked out at 72% (HepG2, 2.5 µM) and 99% (HepG2, 10 µM).
For the sequence “GCGATTCACTGAGGACC (sugars e3 d10 e4, PS)”, the target mRNA inhibition (HepG2, 10 µM) was 68% and 86%.
Take “GCGCAGGACCCCGGAGTAGG (sugars e3 d14 e3, PS)”: the target mRNA inhibition (HepG2, 0.12 µM) is 71%.
For the sequence “GCGGCAGAGCCAGGACTGAA (sugars e5 d10 e5, PS)”, where the note is “HepG2, 0.12 µM”, the target mRNA inhibition worked out at 35%.
